Test results from patent US5939403A, “Keratan sulfate oligosaccharide fraction and pharmaceutical containing the same” (Seikagaku Corporation, priority 1994, dated 1999).
Where a name gives a salt, the structure may show the parent alone.

Legend:
MRL-lpr/lpr mice [1] = assay: Repeated intramuscular administration for 28 days in MRL mice (submandibular lymph node weight); type: in vivo
Experimental: (§1) The effect of the keratan sulfate oligosaccharide was examined on MRL mice which are autoimmune disease model mice.
The PBS solution of the purified keratan sulfate disaccharide (III) which was prepared in Example 1 described above at a dose of 1 mg/kg, 5 mg/kg, or 25 mg/kg weight (hereinafter referred to as the 1 mg/kg administered group, the 5 mg/kg administered group, and the 25 mg/kg administered group, respectively), and PBS as the control (hereinafter sometimes referred to as the control group) was intramuscularly injected, respectively, to the femoral region of MRL-lpr/lpr mice seven times a week for four weeks. After that, the mice were subjected to anatomization, and the weight of submandibular lymph nodes was determined to obtain the average weight. In each group, six mice were used. Further, in the figure, * represents that it has the significant difference with p<0.05 (wherein "p" means a level of significance by the Bonferroni multiple comparative test).

lymphocytes = assay: Cell differentiation induction: lymphocyte surface antigen of lymph node; type: in vivo, MRL-lpr/lpr mice; conditions: 10 mg/kg i.m., eight weeks; vs control, 2.5 and 5 mg/kg
Experimental: The PBS solution of the purified keratan sulfate disaccharide (III) which was prepared in Example 1 described above at a dose of 2.5 mg/kg, 5 mg/kg, or 10 mg/kg weight (hereinafter referred to as the 2.5 mg/kg administered group, the 5 mg/kg administered group, and the 10 mg/kg administered group, respectively), and PBS as the control (hereinafter sometimes referred to as the control group) was intramuscularly injected, respectively, to the femoral region of MRL-lpr/lpr mice seven times a week for eight weeks. After that, the mice were subjected to anatomization, and the lymph nodes were minced on a cell strainer (Falcon 2350) to prepare the lymphocyte. The lymphocyte prepared of each group was subjected to the double immune staining with the anti-CD3 antibody (Seikagaku Corporation) and the anti-CD4 antibody (Pharminjen), that with the anti-CD3 antibody and the anti-CD8a antibody (Pharminjen), and that with the anti-CD3 antibody and the anti-B220 antibody (Pharminjen), respectively. The CD3, CD4, and CDBa are cell surface antigens which are expressed on T cells, and the B220 is that expressed on B cells. And it is known that no expression of these cell surface antigens is observed on null lymphocytes.
The proportion (%) of the CD3 and CD4 positive cells (hereinafter sometimes referred to as "the CD3+CD4+cells"; mainly helper T cells) to all the lymphocytes and the standard errors are shown in FIG. 19, that of the CD3 and CD8a positive cells (hereinafter sometimes referred to as "the CD3+CD8a+cells"; mainly suppressor T cells and cytotoxic T cells) and the standard errors are shown in FIG. 20, and that of the CD3 and B220 positive cells (hereinafter sometimes referred to as "the CD3+B220+cells";abnormal T cells having the surface antigens of B cells) and the standard errors are shown in FIG. 21. In the figures, * represents that it has the significant difference with p<0.05 (wherein "p" means a level of significance by the Ryan multiple comparative test). In each group, seven mice were used.

[2] = system: mesenteric lymph node and submandibular lymph node; assay: Cell differentiation induction: staining concentration of lymph node sections (HE staining); type: in vivo, MRL-lpr/lpr mice; conditions: four weeks
Experimental: The PBS solution of the purified keratan sulfate disaccharide (III) which was prepared in Example 1 described above at a dose of 1 mg/kg, 5 mg/kg, or 25 mg/kg weight (hereinafter referred to as the 1 mg/kg administered group, the 5 mg/kg administered group, and the 25 mg/kg administered group, respectively), and PBS as the control (hereinafter sometimes referred to as the control group) was intramuscularly injected, respectively, to the femoral region of MRL-lpr/lpr mice seven times a week for four weeks. After that, the mice were subjected to anatomization to prepare the section specimens (HE staining) of mesenteric lymph node and submandibular lymph node. The staining concentrations per unit area of the specimens were analyzed by an image analyzer (PIAS). In the undifferentiated cells, the staining concentration per unit area is low because proportion of the cytoplasm is high and the nuclei is stained thinly. In the differentiated cells, the staining concentration per unit area is high because proportion of the nuclei is high and it is stained thickly.
The results of the analysis of mesenteric lymph nodes and submandibular lymph nodes are shown in FIG. 17 and FIG. 18 with the standard errors, respectively. In the figures, ** represents that it has the significant difference with p<0.01 (wherein "p" means a level of significance by the Bonferroni multiple comparative test). […]

carrageenin pleurisy = assay: Carrageenin pleurisy model; type: in vivo, Female S.D. rats; conditions: six hours
Experimental: The effect of the keratan sulfate oligosaccharide was examined with the carrageenin pleurisy model of rats which is generally used for evaluation of anti-inflammatory agents.
Female S.D. rats (n=37) of about 150 to 170 g weight were used for the test. The λ-carrageenin (Sigma) was dissolved in saline to a concentration of 2%, and the solution was filtered with a 0.8 μm filter. The carrageenin solution obtained was intrathoracically administered at 100 μl/animal to prepare the pleurisy model.
To the pleurisy model of rats (n=19) described above, the keratan sulfate tetrasaccharide (I) dissolved in PBS was subcutaneously (s.c.) administered in 20 mg/kg or 10 mg/kg dose. And as the positive control, steroid (dexamethasone acetate; Banyu Pharmaceutical) was subcutaneously administered to the eight rats described above in 150 μg/kg which was the clinical dose. As the negative control, PBS was subcutaneously administered to the 10 rats. Each administration was carried out immediately after the administration of carrageenin.
Each rat was anatomized six hours after the administration of λ-carrageenin. The thoracic cavity of the rats was opened to collect the retained pleural fluid using a 2-ml syringe with probe. After that, inside of the thoracic cavity was washed with 1 ml of saline, and the washing solution was recovered. The volume of the pleural fluid recovered with the syringe was determined, and the number of leukocyte (cell number) in the pleural fluid was determined by an automatic cytometer. The results are be shown in FIG. 8 and FIG. 9, respectively. In the figures, * and ** represent that they have the significant difference with p<0.05 and p<0.01, respectively (wherein "p" means a level of significance by the Duncan test).

MRL-lpr/lpr mice [3] = assay: Repeated intramuscular administration for four weeks in MRL mice (spleen and mesenteric lymph node weight); type: in vivo
Experimental: as §1
The PBS solution of the purified keratan sulfate tetrasaccharide (I) (100 mg/ml) which was prepared in Example 1 described above at a dose of 10 mg/kg weight (hereinafter referred to as the administered group), and PBS as the control was intramuscularly injected, respectively, to the femoral region of MRL-lpr/lpr mice five times a week for four weeks. After that, the mice were subjected to anatomization, and the weight of spleens and mesenteric lymph nodes were determined to obtain the average weight. In the table, "n" represents the number of mice used.

Structure (SMILES) | weight increase in submandibular lymph nodes (FIG. 14) (MRL-lpr/lpr mice [1]; 5 mg/kg i.m., p<0.05) | weight increase in submandibular lymph nodes (FIG. 14) (MRL-lpr/lpr mice [1]; any dose (1, 5, 25 mg/kg i.m.)) | proportion of CD3+B220+ cells (FIG. 21) (lymphocytes) | proportion of CD3+CD4+ cells (FIG. 19) (lymphocytes) | proportion of CD3+CD8a+ cells (FIG. 20) (lymphocytes) | staining concentration per unit area (FIG. 17, FIG. 18) ([2]; 5 mg/kg and 25 mg/kg i.m., p<0.01) | staining concentration per unit area (FIG. 17, FIG. 18) ([2]; any dose (1, 5, 25 mg/kg i.m.)) | number of leukocyte in pleural fluid (FIG. 9) (carrageenin pleurisy; 10 mg/kg and 20 mg/kg s.c.) | volume of pleural fluid (FIG. 8) (carrageenin pleurisy; 10 mg/kg s.c.) | volume of pleural fluid (FIG. 8), dose comparison (carrageenin pleurisy; 10 mg/kg vs 20 mg/kg s.c.) | weight increase in spleens and mesenteric lymph nodes (result in words) (MRL-lpr/lpr mice [3]; 10 mg/kg i.m.) | Spleen Weight (MRL-lpr/lpr mice [3]; 10 mg/kg i.m. five times a week, n = 9, mean ± standard error, control 1013 ± 233) | Mesenteric Lymph Node Weight (MRL-lpr/lpr mice [3]; 10 mg/kg i.m. five times a week, n = 9, mean ± standard error, control 1563 ± 352)
CC(=O)N[C@H]1C(O)O[C@H](COS(=O)(=O)O)[C@@H](O[C@@H]2O[C@H](COS(=O)(=O)O)[C@H](O)[C@H](O)[C@H]2O)[C@@H]1O (stereo partly drawn) [keratan sulfate disaccharide (III), Gal(6S)β1-4GlcNAc(6S)] | a significant suppressive effect on the weight increase was observed compared with the control group | a suppressive effect on the weight increase in submandibular lymph nodes was observed | decreased | increased significantly | increased | the staining concentrations increased significantly compared with the control group | an increase in the staining concentration per unit area (decrease in relative lightness) was observed |  |  |  |  |  | 
CC(=O)N[C@H]1[C@H](O[C@H]2[C@@H](O)[C@@H](COS(=O)(=O)O)O[C@@H](O[C@H]3[C@H](O)[C@@H](NC(C)=O)C(O)O[C@@H]3COS(=O)(=O)O)[C@@H]2O)O[C@H](COS(=O)(=O)O)[C@@H](O[C@@H]2O[C@H](COS(=O)(=O)O)[C@H](O)[C@H](O)[C@H]2O)[C@@H]1O (stereo partly drawn) [keratan sulfate tetrasaccharide (I), Gal(6S)β1-4GlcNAc(6S)β1-3Gal(6S)β1-4GlcNAc(6S)] |  |  |  |  |  |  |  | significantly less than that in the negative control group, and dose-dependent decrease was observed | significantly less than that in the negative control group | almost same as that in the keratan sulfate tetrasaccharide (I) 20 mg/kg administered group | a suppressive tendency for the weight increase in spleens and mesenteric lymph nodes was observed | 704 ± 148 mg | 1338 ± 311 mg
